The results in this text go back to ChEMBL document CHEMBL1681662, “A new structural alert for benzimidazoles: 2,6-dimethylphenyl substituents increase mutagenic potential and time-dependent CYP3A4 inhibition risk” (Bioorg Med Chem Lett, 2011).

For assay [1], the target named is T1, Cytochrome P450 3A4 (Homo sapiens, UniProt P08684). As to the kind of experiment: Inhibition of CYP3A4 in human liver microsome measured after 30 mins preincubation in presence of NADPH. Format: ADME, microsomes.
Assay [2] deals with T1, Cytochrome P450 3A4. Briefly: Inhibition of CYP3A4. Format: ADME.
The subject of assay [3] is Salmonella typhimurium. As to the kind of experiment: Mutagenic activity in Salmonella Typhimurium TA98 assessed as fold increase in maximum revertant at 300 ug by Ames test in presence of S9 fraction. Format: functional, Salmonella enterica subsp. enterica serovar Typhimurium.
Assay [4] relates to Salmonella typhimurium. As to the kind of experiment: Mutagenic activity in Salmonella Typhimurium TA98 assessed as fold increase in maximum revertant at 100 ug by Ames test. Format: functional, Salmonella enterica subsp. enterica serovar Typhimurium.
The test system of assay [5] is Salmonella typhimurium. Briefly: Mutagenic activity in Salmonella Typhimurium TA100 assessed as fold increase in maximum revertant at 1000 ug by Ames test. Format: functional, Salmonella enterica subsp. enterica serovar Typhimurium.
For assay [6], the system named is Salmonella typhimurium. As to the kind of experiment: Mutagenic activity in Salmonella Typhimurium TA100 assessed as fold increase in maximum revertant at 1000 ug by Ames test in presence of S9 fraction. The format is functional, Salmonella enterica subsp. enterica serovar Typhimurium.
Setting [7] is: Salmonella enterica subsp. enterica serovar Typhimurium.

Activity calls are given as the source filed them. The rule behind the calls is not given here.

T1 sequence (P08684 whole entry): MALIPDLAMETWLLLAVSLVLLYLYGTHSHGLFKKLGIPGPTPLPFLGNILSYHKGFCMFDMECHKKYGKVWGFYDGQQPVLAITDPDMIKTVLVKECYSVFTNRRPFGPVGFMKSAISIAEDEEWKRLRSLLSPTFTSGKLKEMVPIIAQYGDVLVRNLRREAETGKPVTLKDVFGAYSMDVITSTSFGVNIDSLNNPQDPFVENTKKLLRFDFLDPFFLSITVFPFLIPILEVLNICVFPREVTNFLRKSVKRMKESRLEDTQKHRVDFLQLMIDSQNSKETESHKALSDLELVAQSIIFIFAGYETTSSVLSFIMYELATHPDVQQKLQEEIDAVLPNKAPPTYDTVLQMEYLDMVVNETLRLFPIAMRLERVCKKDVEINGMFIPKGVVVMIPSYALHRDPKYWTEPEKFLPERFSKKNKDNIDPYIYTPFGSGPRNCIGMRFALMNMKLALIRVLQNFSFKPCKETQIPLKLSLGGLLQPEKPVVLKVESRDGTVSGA

Take `Cc1ccccc1-c1nc2ccc(C(=O)Nc3ccc4ccccc4n3)cc2[nH]1`: the IC50 in assay [1] and in assay [2] was more than 50 µM throughout.
With `Cc1cc(CCC(=O)O)cc(C)c1-c1nc2ccc(C(=O)Nc3ccc4ccccc4n3)cc2[nH]1`, the “fold change (FC)” value in assay [3] worked out at 14.57; in assay [4], 5.86.
For the compound `Cc1cc(CCCP(=O)(O)O)cc(C)c1-c1nc2ccc(C(=O)Nc3ccc4ccccc4n3)cc2[nH]1`, the results for the “fold change (FC)” value in assay [5] and in assay [6] were 2.48 and 2, respectively.
In the case of `Cc1cccc(C)c1-c1nc2ccc(C(=O)Nc3ccc4ccccc4n3)cc2[nH]1`, the IC50 stood at 2.7 µM in assay [1] and 7.3 µM in assay [2].
For the compound `O=C(Nc1ccc2ccccc2n1)c1ccc2nc(-c3c(Cl)cc(CCCP(=O)(O)O)cc3Cl)[nH]c2c1`, the outcome in assay [5] (setting [7]) and in assay [6] (setting [7]) was inactive.
Take `O=C(O)CCc1cc(Cl)c(-c2nc3ccc(C(=O)Nc4ccc5ccccc5n4)cc3[nH]2)c(Cl)c1`: the result in assay [3] (setting [7]) and in assay [4] (setting [7]) was inactive.
